Assay results as given in publication PMC11912475 (Journal of Medicinal Chemistry, 2025).

Experiments:
[1] = target: GluN1-GluN2A NMDAR subtype (Homo sapiens, UniProt Q05586+Q12879); assay: FLIPR/Ca2+ assay, NMDAR GluN1-GluN2A subtype in CHO cells; format: cell-based; details: CHO cells, 10 μM L-glutamate and 10 μM glycine; n.d. = 50% of inhibition could not be reached at the highest concentration used
Procedure, shortened: (§1)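 Fluo-4-loaded CHO cells (with probenecid and 500 μM ketamine during loading) stimulated with 10 μM L-glutamate plus 10 μM glycine added together with compounds, in HEPES buffer pH 7.3 with 2 mM CaCl2.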

[2] = target: T1, GluN1-GluN2B NMDAR subtype (Homo sapiens, UniProt Q05586+Q13224); assay: FLIPR/Ca2+ assay, NMDAR GluN1-GluN2B subtype in CHO cells; format: cell-based; details: CHO cells, 10 μM L-glutamate and 10 μM glycine; n.d. = 50% of inhibition could not be reached at the highest concentration used
T1 construct: host or cells: NR1-2B-CHO cells, constitutive expression
Procedure, shortened: as §1

[3] = target: GluN1-GluN2C NMDAR subtype (Homo sapiens, UniProt Q05586+Q14957); assay: FLIPR/Ca2+ assay, NMDAR GluN1-GluN2C subtype in CHO cells; format: cell-based; details: CHO cells, 10 μM L-glutamate and 10 μM glycine; n.d. = 50% of inhibition could not be reached at the highest concentration used
Procedure, shortened: as §1

[4] = target: GluN1-GluN2D NMDAR subtype (Homo sapiens, UniProt O15399+Q05586); assay: FLIPR/Ca2+ assay, NMDAR GluN1-GluN2D subtype in CHO cells; format: cell-based; details: CHO cells, 10 μM L-glutamate and 10 μM glycine; n.d. = 50% of inhibition could not be reached at the highest concentration used
Procedure, shortened: as §1

[5] = test system: Glutamate, NMDA, Phencyclidine binding site; assay: Radioligand displacement binding assay, [3H]TCP, NMDA; parameters: species or system Wistar rat
[6] = target: T2, Histamine H1 (Homo sapiens, UniProt P35367); assay: Radioligand displacement binding assay, [3H]pyrilamine, H1
T2 construct: host or cells: CHO-K1

[7] = target: T3, Muscarinic M5 (Homo sapiens, UniProt P08912); assay: Radioligand displacement binding assay, [3H]N-methylscopolamine, M5
T3 construct: host or cells: CHO-K1
T3 sequence (P08912 1-532): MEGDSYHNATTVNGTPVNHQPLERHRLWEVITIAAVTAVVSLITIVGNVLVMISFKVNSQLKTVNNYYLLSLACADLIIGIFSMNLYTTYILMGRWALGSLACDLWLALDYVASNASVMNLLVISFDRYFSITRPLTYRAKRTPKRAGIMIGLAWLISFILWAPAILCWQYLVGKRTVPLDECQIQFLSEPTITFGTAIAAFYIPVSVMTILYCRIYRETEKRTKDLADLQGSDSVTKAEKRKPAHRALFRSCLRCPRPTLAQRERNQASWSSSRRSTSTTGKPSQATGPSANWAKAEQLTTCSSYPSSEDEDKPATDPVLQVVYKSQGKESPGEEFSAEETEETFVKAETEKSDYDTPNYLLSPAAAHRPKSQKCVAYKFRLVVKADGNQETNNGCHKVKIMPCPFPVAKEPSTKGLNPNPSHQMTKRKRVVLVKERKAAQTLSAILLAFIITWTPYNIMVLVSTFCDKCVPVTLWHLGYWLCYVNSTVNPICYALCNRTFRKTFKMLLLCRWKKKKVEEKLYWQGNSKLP

[8] = target: T4, μ opioid receptor (MOP) (Homo sapiens, UniProt P35372); assay: biochemical; format: binding; details: read-out: % inhibition of binding, MOP
T4 construct: host or cells: CHO-K1

[9] = target: T5, Serotonin 5-HT1A (Homo sapiens, UniProt P08908); assay: Radioligand displacement binding assay, [3H]8-OH-DPAT, 5-HT1A
T5 construct: host or cells: CHO-K1
T5 sequence (P08908 1-422): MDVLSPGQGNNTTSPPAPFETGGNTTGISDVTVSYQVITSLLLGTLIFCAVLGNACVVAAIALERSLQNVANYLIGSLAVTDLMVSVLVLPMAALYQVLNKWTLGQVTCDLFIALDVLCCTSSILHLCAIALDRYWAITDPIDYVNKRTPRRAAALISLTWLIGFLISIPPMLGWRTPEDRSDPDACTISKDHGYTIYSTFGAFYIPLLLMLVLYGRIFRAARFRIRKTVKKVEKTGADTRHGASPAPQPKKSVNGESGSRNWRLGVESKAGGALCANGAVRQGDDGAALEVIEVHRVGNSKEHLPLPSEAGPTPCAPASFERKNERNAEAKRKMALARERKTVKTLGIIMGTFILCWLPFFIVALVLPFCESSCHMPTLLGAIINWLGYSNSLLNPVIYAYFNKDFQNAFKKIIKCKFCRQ

[10] = target: T6, Serotonin 5-HT2A (Homo sapiens, UniProt P28223); assay: Radioligand displacement binding assay, [3H]ketanserin, 5-HT2A
T6 construct: host or cells: CHO-K1

[11] = target: T7, Serotonin 5-HT2C (Homo sapiens, UniProt P28335); assay: Radioligand displacement binding assay, [3H]mesulergine, 5-HT2C
T7 construct: host or cells: CHO-K1
T7 sequence (P28335 33-458): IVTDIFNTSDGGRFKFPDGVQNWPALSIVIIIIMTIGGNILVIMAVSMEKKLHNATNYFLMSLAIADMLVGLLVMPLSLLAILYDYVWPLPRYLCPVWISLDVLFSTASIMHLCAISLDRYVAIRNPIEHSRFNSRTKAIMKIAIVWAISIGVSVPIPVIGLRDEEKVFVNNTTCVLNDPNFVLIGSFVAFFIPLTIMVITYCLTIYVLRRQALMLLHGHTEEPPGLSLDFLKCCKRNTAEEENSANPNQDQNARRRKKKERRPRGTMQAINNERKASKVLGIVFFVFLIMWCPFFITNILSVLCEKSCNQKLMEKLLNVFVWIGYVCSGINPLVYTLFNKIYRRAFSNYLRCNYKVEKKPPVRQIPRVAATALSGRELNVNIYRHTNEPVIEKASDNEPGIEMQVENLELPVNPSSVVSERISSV

[12] = target: T8, Serotonin 5-HT5A (Homo sapiens, UniProt P47898); assay: Radioligand displacement binding assay, [3H]LSD, 5-HT5A
T8 construct: host or cells: CHO-K1

[13] = target: T9, Serotonin 5-HT7 (Homo sapiens, UniProt P34969); assay: Radioligand displacement binding assay, [3H]LSD, 5-HT7
T9 construct: host or cells: CHO-K1

[14] = target: T10, Sigma σ1 (Homo sapiens, UniProt Q99720); assay: Radioligand displacement binding assay, [3H]pentazocine, sigma σ1
T10 construct: Sigma σ1; Source: Human Jurkat cells; host or cells: Jurkat

[15] = target: T11, Norepinephrine transporter NET (Homo sapiens, UniProt P23975); assay: Radioligand displacement binding assay, [125I]RTI-55, NET
T11 construct: host or cells: MDCK

[16] = target: T12, Serotonin transporter SERT (Homo sapiens, UniProt P31645); assay: Radioligand displacement binding assay, [3H]paroxetine, SERT
T12 construct: host or cells: HEK-293
T12 sequence (P31645 whole entry): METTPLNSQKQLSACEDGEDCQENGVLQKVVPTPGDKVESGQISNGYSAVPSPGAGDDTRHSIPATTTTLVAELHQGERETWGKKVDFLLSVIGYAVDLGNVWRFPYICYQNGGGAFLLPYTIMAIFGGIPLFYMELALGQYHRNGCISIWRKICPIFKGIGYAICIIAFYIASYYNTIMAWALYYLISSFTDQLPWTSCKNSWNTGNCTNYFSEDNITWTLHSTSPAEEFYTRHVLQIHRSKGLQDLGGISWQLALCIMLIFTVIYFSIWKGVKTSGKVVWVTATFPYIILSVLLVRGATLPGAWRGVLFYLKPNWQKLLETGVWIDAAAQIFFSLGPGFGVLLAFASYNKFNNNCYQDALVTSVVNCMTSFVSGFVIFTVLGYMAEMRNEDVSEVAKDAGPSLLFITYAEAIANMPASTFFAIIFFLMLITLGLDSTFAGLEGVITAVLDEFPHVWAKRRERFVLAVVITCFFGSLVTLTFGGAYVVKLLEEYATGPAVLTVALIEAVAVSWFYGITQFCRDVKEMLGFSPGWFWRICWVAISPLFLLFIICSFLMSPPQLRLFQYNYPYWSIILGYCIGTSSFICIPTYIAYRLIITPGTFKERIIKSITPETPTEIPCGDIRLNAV

T8 sequence (P47898 whole entry): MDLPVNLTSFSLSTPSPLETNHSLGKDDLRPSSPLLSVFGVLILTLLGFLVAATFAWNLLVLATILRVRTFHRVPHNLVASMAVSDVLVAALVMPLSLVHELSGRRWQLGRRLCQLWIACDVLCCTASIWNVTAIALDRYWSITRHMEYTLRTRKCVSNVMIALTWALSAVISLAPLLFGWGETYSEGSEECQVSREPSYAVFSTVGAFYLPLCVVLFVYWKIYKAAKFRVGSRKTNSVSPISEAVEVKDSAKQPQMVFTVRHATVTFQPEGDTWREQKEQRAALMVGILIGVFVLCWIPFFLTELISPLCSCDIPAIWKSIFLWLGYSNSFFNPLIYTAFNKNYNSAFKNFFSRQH
T6 sequence (P28223 whole entry): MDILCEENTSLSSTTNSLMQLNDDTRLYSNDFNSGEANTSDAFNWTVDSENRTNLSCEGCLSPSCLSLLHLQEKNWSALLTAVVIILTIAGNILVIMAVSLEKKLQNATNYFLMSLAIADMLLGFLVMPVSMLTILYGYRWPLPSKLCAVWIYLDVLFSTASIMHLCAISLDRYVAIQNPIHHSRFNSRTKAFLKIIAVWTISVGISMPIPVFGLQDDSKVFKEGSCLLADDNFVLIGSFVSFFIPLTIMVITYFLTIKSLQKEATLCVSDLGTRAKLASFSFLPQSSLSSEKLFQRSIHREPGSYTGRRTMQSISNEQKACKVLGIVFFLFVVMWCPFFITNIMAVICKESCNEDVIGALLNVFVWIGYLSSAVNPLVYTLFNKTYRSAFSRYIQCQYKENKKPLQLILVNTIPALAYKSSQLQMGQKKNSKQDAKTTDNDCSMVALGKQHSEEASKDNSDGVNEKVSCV
T11 sequence (P23975 whole entry): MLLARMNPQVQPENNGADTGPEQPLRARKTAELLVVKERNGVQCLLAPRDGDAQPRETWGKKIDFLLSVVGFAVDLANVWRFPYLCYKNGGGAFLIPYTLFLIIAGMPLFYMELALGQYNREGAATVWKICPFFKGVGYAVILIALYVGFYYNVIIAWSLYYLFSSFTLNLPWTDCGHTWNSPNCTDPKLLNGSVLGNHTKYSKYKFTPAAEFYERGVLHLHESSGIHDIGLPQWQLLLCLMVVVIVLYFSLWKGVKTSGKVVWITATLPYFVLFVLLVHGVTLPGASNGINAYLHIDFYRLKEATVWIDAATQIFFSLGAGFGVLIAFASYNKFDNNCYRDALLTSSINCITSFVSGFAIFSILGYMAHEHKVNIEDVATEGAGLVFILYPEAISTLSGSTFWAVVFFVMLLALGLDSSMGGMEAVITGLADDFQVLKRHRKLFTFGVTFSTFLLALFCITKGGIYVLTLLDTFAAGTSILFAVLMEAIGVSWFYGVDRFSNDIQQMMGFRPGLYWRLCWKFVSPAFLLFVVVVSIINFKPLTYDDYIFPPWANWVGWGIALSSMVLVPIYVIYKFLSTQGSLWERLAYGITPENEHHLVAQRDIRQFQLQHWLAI
T4 sequence (P35372 whole entry): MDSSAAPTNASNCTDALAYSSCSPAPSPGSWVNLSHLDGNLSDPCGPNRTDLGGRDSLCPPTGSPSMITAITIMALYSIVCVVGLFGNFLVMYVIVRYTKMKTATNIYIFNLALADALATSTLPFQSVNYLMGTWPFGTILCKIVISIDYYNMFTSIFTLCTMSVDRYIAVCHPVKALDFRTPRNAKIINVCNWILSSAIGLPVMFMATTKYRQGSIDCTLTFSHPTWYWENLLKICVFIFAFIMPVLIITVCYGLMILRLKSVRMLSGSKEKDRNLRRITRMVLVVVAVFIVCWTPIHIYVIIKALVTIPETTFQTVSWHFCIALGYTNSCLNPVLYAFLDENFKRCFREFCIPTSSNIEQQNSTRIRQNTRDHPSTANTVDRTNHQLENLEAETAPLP
T9 sequence (P34969 whole entry): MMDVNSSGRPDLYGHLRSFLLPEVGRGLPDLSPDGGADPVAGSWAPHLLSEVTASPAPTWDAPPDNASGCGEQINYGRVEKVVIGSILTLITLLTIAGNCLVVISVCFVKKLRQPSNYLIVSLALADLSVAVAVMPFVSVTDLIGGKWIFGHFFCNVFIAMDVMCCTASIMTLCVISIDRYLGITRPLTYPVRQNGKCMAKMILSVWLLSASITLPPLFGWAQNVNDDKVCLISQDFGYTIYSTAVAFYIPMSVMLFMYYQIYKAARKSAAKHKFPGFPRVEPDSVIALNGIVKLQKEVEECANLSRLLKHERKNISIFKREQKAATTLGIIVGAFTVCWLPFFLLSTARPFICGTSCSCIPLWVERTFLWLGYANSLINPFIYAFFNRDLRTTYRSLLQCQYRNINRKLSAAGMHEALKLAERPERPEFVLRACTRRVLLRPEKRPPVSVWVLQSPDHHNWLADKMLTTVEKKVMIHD
T10 sequence (Q99720 whole entry): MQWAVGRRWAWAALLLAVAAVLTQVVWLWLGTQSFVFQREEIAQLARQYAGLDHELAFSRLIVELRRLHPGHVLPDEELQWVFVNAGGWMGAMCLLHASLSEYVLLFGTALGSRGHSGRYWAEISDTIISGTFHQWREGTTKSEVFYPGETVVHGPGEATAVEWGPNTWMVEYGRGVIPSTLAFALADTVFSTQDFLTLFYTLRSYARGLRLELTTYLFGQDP
T2 sequence (P35367 whole entry): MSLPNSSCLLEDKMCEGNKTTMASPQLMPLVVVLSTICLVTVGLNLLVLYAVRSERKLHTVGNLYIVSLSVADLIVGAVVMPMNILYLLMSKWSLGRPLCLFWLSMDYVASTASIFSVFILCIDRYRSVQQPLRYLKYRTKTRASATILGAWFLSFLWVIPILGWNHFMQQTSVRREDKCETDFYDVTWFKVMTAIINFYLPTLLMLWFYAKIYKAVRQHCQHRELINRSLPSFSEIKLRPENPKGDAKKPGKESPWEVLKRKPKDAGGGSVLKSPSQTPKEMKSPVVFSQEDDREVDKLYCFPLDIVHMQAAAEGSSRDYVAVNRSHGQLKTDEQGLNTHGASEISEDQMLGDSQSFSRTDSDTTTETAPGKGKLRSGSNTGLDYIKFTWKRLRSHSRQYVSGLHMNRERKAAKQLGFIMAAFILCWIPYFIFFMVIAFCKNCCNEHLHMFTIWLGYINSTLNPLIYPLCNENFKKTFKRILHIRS
Chain of GluN1-GluN2D NMDAR subtype (O15399 28-1336, other chains not shown): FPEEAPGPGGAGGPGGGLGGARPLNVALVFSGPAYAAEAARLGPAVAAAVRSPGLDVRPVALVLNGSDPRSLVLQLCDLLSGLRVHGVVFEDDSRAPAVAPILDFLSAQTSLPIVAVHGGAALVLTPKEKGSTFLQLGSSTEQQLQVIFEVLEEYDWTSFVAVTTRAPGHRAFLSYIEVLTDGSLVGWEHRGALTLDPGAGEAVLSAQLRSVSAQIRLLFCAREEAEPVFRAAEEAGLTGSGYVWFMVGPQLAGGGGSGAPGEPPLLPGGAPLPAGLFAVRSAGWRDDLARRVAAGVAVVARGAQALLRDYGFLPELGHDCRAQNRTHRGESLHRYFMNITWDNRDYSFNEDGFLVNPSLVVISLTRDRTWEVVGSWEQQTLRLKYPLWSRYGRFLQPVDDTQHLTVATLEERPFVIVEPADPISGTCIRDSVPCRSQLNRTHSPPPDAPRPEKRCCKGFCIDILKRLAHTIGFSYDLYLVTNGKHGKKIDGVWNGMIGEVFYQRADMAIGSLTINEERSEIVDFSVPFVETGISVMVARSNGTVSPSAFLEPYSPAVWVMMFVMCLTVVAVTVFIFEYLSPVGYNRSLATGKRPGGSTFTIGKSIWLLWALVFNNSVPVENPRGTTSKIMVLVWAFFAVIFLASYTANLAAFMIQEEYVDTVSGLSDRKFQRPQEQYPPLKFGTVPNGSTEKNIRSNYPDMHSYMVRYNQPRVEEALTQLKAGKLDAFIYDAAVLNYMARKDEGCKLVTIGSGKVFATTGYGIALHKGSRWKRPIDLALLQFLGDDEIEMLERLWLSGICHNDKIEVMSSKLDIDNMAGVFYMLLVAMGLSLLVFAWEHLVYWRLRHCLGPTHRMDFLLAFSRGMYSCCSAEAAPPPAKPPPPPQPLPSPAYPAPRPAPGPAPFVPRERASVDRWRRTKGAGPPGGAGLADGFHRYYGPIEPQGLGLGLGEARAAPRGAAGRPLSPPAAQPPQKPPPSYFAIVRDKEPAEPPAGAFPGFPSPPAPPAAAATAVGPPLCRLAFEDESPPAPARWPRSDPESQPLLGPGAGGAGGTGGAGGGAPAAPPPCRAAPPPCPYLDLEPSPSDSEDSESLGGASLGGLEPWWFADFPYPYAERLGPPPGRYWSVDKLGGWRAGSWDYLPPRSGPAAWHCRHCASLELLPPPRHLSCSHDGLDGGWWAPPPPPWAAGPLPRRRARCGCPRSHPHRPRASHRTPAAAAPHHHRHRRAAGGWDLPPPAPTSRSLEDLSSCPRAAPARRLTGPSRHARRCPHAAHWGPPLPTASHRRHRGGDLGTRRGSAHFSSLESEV

With `CC[C@@H](O)C(C[C@H](C)NC)(c1ccccc1)c1ccccc1` [(3R,6S)-NML, (3R,6S)-6-(methylamino)-4,4-diphenylheptan-3-ol] the “pIC50 (mean ± SEM) GluN1-GluN2A” value [1] was 4.4 ± 0.037, the “pIC50 (mean ± SEM) GluN1-GluN2B” value [2] was 4.5 ± 0.053 and the “pIC50 (mean ± SEM) GluN1-GluN2C” value [3] was 4.6 ± 0.046. The “pIC50 (mean ± SEM) GluN1-GluN2D” value [4] was 4.7 ± 0.057, the “% inhibition of binding, NMDA” value ([5]; 1 μM) was 8% and the “% inhibition of binding, NMDA” value ([5]; 10 μM) was 48%. It also gave an inhibition at 10 µM ([6]; 10 μM) of 6%, an inhibition at 30 µM ([6]; 30 μM) of 43% and an inhibition at 1 µM ([7]; 1 μM) of 11%. For the same compound, the inhibition at 10 µM ([7]; 10 μM) was 46%, the inhibition at 0.3 µM ([8]; 0.3 μM) was 1% and the inhibition at 3 µM ([8]; 3 μM) was 29%. For the same compound, the inhibition at 0.3 µM ([9]; 0.3 μM) was 5%, the inhibition at 3 µM ([9]; 3 μM) was 11% and the inhibition at 0.3 µM ([10]; 0.3 μM) was 0%. For the same compound, the inhibition at 3 µM ([10]; 3 μM) was 4%, the inhibition at 0.3 µM ([11]; 0.3 μM) was -4% and the inhibition at 3 µM ([11]; 3 μM) was 5%. It also gave an inhibition at 1 µM ([12]; 1 μM) of -1%, an inhibition at 10 µM ([12]; 10 μM) of 15% and an inhibition at 1 µM ([13]; 1 μM) of 14%. For the same compound, the inhibition at 10 µM ([13]; 10 μM) was 28%, the inhibition at 0.3 µM ([14]; 0.3 μM) was 47% and the inhibition at 3 µM ([14]; 3 μM) was 80%. It also gave an inhibition at 1 µM ([15]; 1 μM) of 10%, an inhibition at 10 µM ([15]; 10 μM) of 14% and an inhibition at 1 µM ([16]; 1 μM) of 12%. It also gave an inhibition at 10 µM ([16]; 10 μM) of 45%.
